In the supplement of paper PMC6470124:

Tests used:
[1] = absolute recovery over vacuum-assisted evaporative concentration; higher = better recovery; details: enrichment method: VEC
In short: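 Water samples (influent 6 mL, effluent 15 mL, surface and nanopure water 60 mL) were spiked with standards before concentration, after concentration or not at all, at 200 ng/L (nanopure/surface) or 1000 ng/L (wastewater), with class- and compound-specific adjustments. They were evaporated at 55 °C and 20 mbar to about 0.3 mL, brought to 0.4 mL and centrifuged. Internal standards were added afterwards and samples were analysed by LC-HRMS/MS. Absolute recovery was (response ratio pre − unspiked)/(post − unspiked) × 100, using averages of ≥ 2 replicates.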

[2] = absolute recovery over mixed-bed multilayer solid-phase extraction; higher = better recovery; details: enrichment method: SPE
In short: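 Wastewater (100–250 mL, pH 6.5, glass-fibre filtered) and unfiltered nanopure water (1000 mL) were extracted on a three-layer mixed-bed cartridge, with standards spiked before extraction, after it, or not at all at 1000 ng/L and 200 ng/L respectively, apart from some classes. Internal standards were then added for liquid chromatography with high-resolution tandem mass spectrometry in both ionisation modes. Absolute recovery compares background-corrected response ratios of pre- and post-spiked samples across at least two replicates.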

[3] = LC retention time (Atlantis T3, 5-95% MeOH gradient, 0.1% formic acid); higher = more retained / less polar
In short: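 Retention times were recorded for reference standards on a polar reversed-phase C18 column. The standards were of purity ≥ 95%, and the Atlantis T3 column (3 × 150 mm, 3 μm) was run at 0.3 mL/min with a gradient from 5 to 95% methanol over 17.5 min, both water and methanol containing 0.1% formic acid. Detection used high-resolution tandem mass spectrometry on a QExactive Plus, with positive and negative electrospray in separate runs, and peaks were integrated in TraceFinder (5 ppm tolerance, at least three points per peak) before being checked by hand.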

| SMILES | absolute recovery ([1]; wastewater effluent) | absolute recovery ([1]; wastewater influent) | absolute recovery ([2]; nanopure water) | absolute recovery ([2]; surface water) | absolute recovery ([2]; wastewater effluent) | absolute recovery ([2]; wastewater influent) | LC retention time [3] |
| --- | --- | --- | --- | --- | --- | --- | --- |
| CC(C)(C)C(O)(CCc1ccc(Cl)cc1)Cn1cncn1 (stereo not given) [Tebuconazol] | 106% | 99.8% | 98.5% | 94.7% | 96% | 94.3% | 20.9 min |
| CCOC(=O)C1(c2ccccc2)CCC=CC1[NH+](C)C (stereo not given) [Tilidine] | 70% | 63.5% | 73.9% | 78.8% | 79.5% | 83.5% | 12.6 min |
| CCOc1ccc(NC(=O)OC(C)C)cc1OCC [Diethofencarb] | 104% | 106% | 98.1% | 103% | 95.6% | 93.8% | 19.2 min |
| NC(=O)N1c2ccccc2C(O)C(O)c2ccccc21 (stereo not given) [Carbamazepin-10-11-dihydro-10-11-dihydroxy] | 97.7% | 93.4% | 95.2% | 97.5% | 94.2% | 96% | 15.3 min |
| CCOC(=O)C1=CC(OC(CC)CC)C(NC(C)=O)C([NH3+])C1 (stereo not given) [Oseltamivir] | 101% | 107% | 69.9% | 77.5% | 77.3% | 80.4% | 14.7 min |
| [O-]n1nnc2ccccc21 [1-Hydroxybenzotriazole H] | 126% | 73% | 99.2% | 45.5% | 60.4% | 67.3% | 11.6 min |
| CN1CC[NH+]=C(c2ccccc2)c2cc(Cl)ccc21 [Medazepam] | 103% | 109% | 83.9% | 95.2% | 93.6% | 68.8% | 14.5 min |
| CCCCc1oc2ccc(NS(C)(=O)=O)cc2c1C(=O)c1ccc(OCCC[NH+](CCCC)CCCC)cc1 [Dronedaron] | 44.9% | 101% | 71.7% | 87.9% | 84.1% | – | 17.5 min |
| CCNc1nc(Cl)nc(NC(C)(C)C)n1 [Terbutylazin] | 95% | 91.9% | 94.9% | 95% | 93.8% | 93.4% | 19.7 min |
| COCCN(C(=O)CCl)c1c(C)cccc1C [Dimethachlor] | 94.3% | 97.7% | 93% | 89.9% | 89.6% | 95.7% | 18.8 min |
| N#CC1CCCN1C(=O)C[NH2+]C12CC3CC(CC(O)(C3)C1)C2 (stereo not given) [Vildagliptin] | 105% | 102% | 92.8% | 94.1% | 92.8% | 93.2% | 8.73 min |
| CC(C)c1nc(N(C)S(C)(=O)=O)nc(-c2ccc(F)cc2)c1C=CC(O)CC(O)CC(=O)[O-] (stereo not given) [Rosuvastatin] | 108% | 91.4% | 96.2% | 92.9% | 90% | 90.1% | 18.3 min |
| Cc1cccc(C)c1NC(=O)C1CCCC[NH+]1C (stereo not given) [Mepivacaine] | 106% | 103% | 78.4% | 74.7% | 80% | 89.6% | 11.6 min |
| Cn1sccc1=O [2-Methyl-4-isothiazolin-3-one] | 93.6% | 27% | 12% | 11% | 11.7% | 17% | 7.95 min |
| CC(=O)N1CCN(c2ccc(OCC3COC(Cn4cc[nH+]c4)(c4ccc(Cl)cc4Cl)O3)cc2)CC1 (stereo not given) [Ketoconazol] | 71.5% | – | 80.2% | 62.2% | 66.4% | 85.8% | 16 min |
| CCCCOc1cc(C(=O)NCC[NH+](CC)CC)c2ccccc2n1 [Dibucaine] | 92% | 136% | 99.8% | 81.6% | 93% | – | 16.2 min |
| CC1=NNC(=O)N(N=Cc2cccnc2)C1 [Pymetrozin] | 107% | 110% | 118% | 112% | 106% | 97% | 8.65 min |
| CC[NH+](CC)CCNC(=O)c1cc(Cl)c(N)cc1OC [Metoclopramid] | 102% | 92.6% | 86.5% | 90% | 85.3% | 86.5% | 11.3 min |
| Nc1[nH]c(=O)ncc1F [5-Fluoro-Cytosine] | 107% | 58.4% | 4.4% | 5.9% | 5.4% | 4.3% | 3.63 min |
| NC1=C(Cl)C(=O)c2ccccc2C1=O [Quinoclamine] | 97% | 106% | 93.9% | 96.8% | 92.6% | 88% | 16.8 min |
| CC1CC2C3CCC4=CC(=O)C=CC4(C)C3(F)C(O)CC2(C)C1(O)C(=O)CO (stereo not given) [Dexamethason] | 106% | 105% | 92.3% | 86.2% | 91.2% | 94% | 18.7 min |
| Cc1c(N)c(=O)n(-c2ccccc2)n1C [4-Aminopyrin (=4-Aminoantipyrin, 4-AA)] | 84.1% | 75.5% | 37.8% | 55.7% | 24.6% | 37.4% | 9.66 min |
| Nc1ccc(S(=O)(=O)[N-]c2nccs2)cc1 [Sulfathiazol] | 99.3% | 90.4% | 92.4% | 91.4% | 83.6% | 93.6% | 10.4 min |
| O=C([O-])c1cn(C2CC2)c2cc(N3CC[NH2+]CC3)c(F)cc2c1=O [Ciprofloxacin] | 105% | – | 77.2% | 73.9% | 72.6% | 73.8% | 11.7 min |
| NC(=O)N=C1SCCN1Cc1ccc(Cl)nc1 [Thiacloprid-amide] | 106% | 104% | 109% | 108% | 104% | 96.3% | 13.2 min |
| CCC(C)OC(=O)N1CCCCC1CCO (stereo not given) [Picaridin (=Icaridin)] | 94.9% | 99.4% | 97.2% | 91.8% | 93.9% | 96.2% | 19 min |
| Cc1ccc(-c2c(Cl)nc(C#N)n2S(=O)(=O)N(C)C)cc1 [Cyazofamid] | 99.5% | 104% | 66.4% | 64.6% | 58% | 63.2% | 20.3 min |
